In patent publication US4338305A, “Use of LRH and LRH agonists” (American Home Products Corporation, priority 1975, dated 1982):
Where a name gives a salt, the structure may show the parent alone. Read-outs that look alike come from different tables or passages of the source. Non-standard residues stand in square brackets, D forms with d. Residues, ends and D or L forms follow the SMILES beside them. pGlu = O=C1CC[C@@H](C(=O)O)N1

Experiments:
[1] = tested on: Female, Sprague-Dawley rats
Description: Female, Sprague-Dawley rats, 350±30 g., are caged daily (P.M.) with adult, sexually experienced Sprague-Dawley males. Vaginal smears are taken each A.M. after cohabitation. The presence of vaginal sperm is used as the index of mating and the initiation of pregnancy. Day 1 of pregnancy is taken as the day sperm is found in the vaginal smear. Mated females are then grouped separately. Treatment is begun at any time over the first 12 days of pregnancy at a divided dose (9 A.M. and 3 P.M.) or a single treatment. Claudogenic activity is defined for compounds administered over the first 7 days inclusive of pregnancy (Pre-implantation). Interceptive activity is defined for compounds administered days 7-12 inclusive of pregnancy (Post-implantation). Rats are sacrificed on day 14 (claudogen), day 18 (interceptive) or allowed to come to term prior to the option of sacrifice (claudogen or interceptive.) Rats containing at least one "Normal" fetus are considered pregnant.
For the purpose of defining the post-coital stages of pregnancy in the rat as an experimental model, the following schedule is provided in definition of post-coital contraceptive activity which, for the purpose of this disclosure, is intended to embrace both pre-(claudogenic) and post-(interceptive) implantation contraceptive activity: day 1--vaginal sperm; days 1-3--ova transport in oviducts, and fertilization; days 3-5 blastocyst free in uterine lumen; days 5-7--implantation into uterine wall; days>7--post implantation.

[2] = literature report; cited from earlier work
[3] = tested on: Proestrous female rats; experiment: Ovulation Induction in the Rat; format: in vivo; conditions: as a result of induced LH production
Description: (b) Ovulation Induction in the Rat
Proestrous female rats were injected intraperitoneally with a hypnotic dose of Nembutal about (~60 mg/kg) at 1:30 P.M. This treatment blocks the spontaneous ovulatory surge of pituitary LH which generally occurs between 2:00 and 4:00 P.M. Between 1:40 and 1:50 P.M. the recipients then received the test material via the jugular vein. The following morning the animals are sacrificed and the fallopian tubes examined for ova under a dissecting microscope.

[4] = PO, total daily dose 500 μg/rat, Rx days 7-12 post coitus
[5] = PO, total daily dose 1000 μg/rat, Rx days 1-7 post coitus
[6] = PO, total daily dose 1000 μg/rat, Rx days 7-12 post coitus
[7] = SC, total daily dose 5.0 μg/rat, Rx days 7-12 post coitus
[8] = SC, total daily dose 100 μg/rat, Rx days 1-3 post coitus
[9] = SC, total daily dose 100 μg/rat, Rx days 1-7 post coitus
[10] = SC, total daily dose 200 μg/rat, Rx days 1-3 post coitus
[11] = SC, total daily dose 5000 μg/rat, Rx day 3 post coitus
[12] = PO, total daily dose 500 μg/rat, Rx days 1-7 post coitus
[13] = SC, total daily dose 300 μg/rat, Rx days 1-3 post coitus

CCNC(=O)[C@@H]1CCCN1C(=O)[C@H](CCCNC(=N)N)NC(=O)[C@H](CC(C)C)NC(=O)[C@@H](C)NC(=O)[C@H](Cc1ccc(O)cc1)NC(=O)[C@H](CO)NC(=O)[C@H](Cc1c[nH]c2ccccc12)NC(=O)[C@H](Cc1c[nH]cn1)NC(=O)[C@@H]1CCC(=O)N1
% inhibition of Pregnancy ([1]; PO, total daily dose 200 μg/rat, Rx days 7-12 post coitus): 0%
% inhibition of Pregnancy [1, 4]: 67%
% inhibition of Pregnancy [1, 5]: 100%
% inhibition of Pregnancy [1, 6]: 100%
% inhibition of Pregnancy ([1]; SC, total daily dose 0.10 μg/rat, Rx days 7-12 post coitus): 0%
% inhibition of Pregnancy ([1]; SC, total daily dose 1.0 μg/rat, Rx days 1-7 post coitus): 100%
% inhibition of Pregnancy ([1]; SC, total daily dose 1.0 μg/rat, Rx days 7-12 post coitus): 100%
% inhibition of Pregnancy [1, 7]: 100%
% inhibition of Pregnancy ([1]; SC, total daily dose 50 μg/rat, Rx days 1-3 post coitus): 40%
% inhibition of Pregnancy [1, 8]: 80%
% inhibition of Pregnancy [1, 9]: 100%
% inhibition of Pregnancy [1, 10]: 100%
% inhibition of Pregnancy [1, 11]: 100%
% inhibition of Pregnancy ([1]; SC, total daily dose 5000 μg/rat, Rx day 7 post coitus): 0%
% inhibition of Pregnancy ([1]; SC, total daily dose 5000 μg/rat, Rx day 8 post coitus): 100%
% inhibition of Pregnancy ([1]; SC, total daily dose .002 μg/rat, Rx days 1-7 post coitus): 0%
% inhibition of Pregnancy ([1]; SC, total daily dose .010 μg/rat, Rx days 1-7 post coitus): 30%
activity relative to LRH [2]: ~50 times
potency/activity versus LRH, in words [2]: markedly more potent than LRH

CCNC(=O)[C@@H]1CCCN1C(=O)[C@H](CCCNC(=N)N)NC(=O)[C@H](CC(C)C)NC(=O)[C@@H](CC)NC(=O)[C@H](Cc1ccc(O)cc1)NC(=O)[C@H](CO)NC(=O)[C@H](Cc1c[nH]c2ccccc12)NC(=O)[C@H](Cc1c[nH]cn1)NC(=O)[C@@H]1CCC(=O)N1
% inhibition of Pregnancy [1, 4]: 20%
% inhibition of Pregnancy ([1]; SC, total daily dose 5.0 μg/rat, Rx days 1-7 post coitus): 40%
% inhibition of Pregnancy [1, 7]: 80%
% inhibition of Pregnancy [1, 9]: 100%

CCNC(=O)[C@@H]1CCCN1C(=O)[C@H](CCCNC(=N)N)NC(=O)[C@H](CC(C)C)NC(=O)[C@@H](CCCCN)NC(=O)[C@H](Cc1ccc(O)cc1)NC(=O)[C@H](CO)NC(=O)[C@H](Cc1c[nH]c2ccccc12)NC(=O)[C@H](Cc1c[nH]cn1)NC(=O)[C@@H]1CCC(=O)N1 [[D-Lys^6, des-Gly-NH2^10]LRH ethylamide]
activity relative to LRH as ovulation inducing agents [3]: > 40 times

CCNC(=O)[C@@H]1CCCN1C(=O)[C@H](CCCNC(=N)N)NC(=O)[C@H](CC(C)C)NC(=O)[C@@H](CC(=O)O)NC(=O)[C@H](Cc1ccc(O)cc1)NC(=O)[C@H](CO)NC(=O)[C@H](Cc1c[nH]c2ccccc12)NC(=O)[C@H](Cc1c[nH]cn1)NC(=O)[C@@H]1CCC(=O)N1 [[D-Asp^6, des-Gly-NH2^10]LRH ethylamide]
activity relative to LRH as ovulation inducing agents [3]: > 40 times

CC(C)C[C@H](NC(=O)C(C)(C)NC(=O)[C@H](Cc1ccc(O)cc1)NC(=O)[C@H](CO)NC(=O)[C@H](Cc1c[nH]c2ccccc12)NC(=O)[C@H](Cc1c[nH]cn1)NC(=O)[C@@H]1CCC(=O)N1)C(=O)N[C@@H](CCCNC(=N)N)C(=O)N1CCC[C@H]1C(=O)NCC(N)=O [[2-methyl-Ala^6]LRH, L-(5-oxoprolyl)-L-histidyl-L-tryptophyl-L-seryl-L-tyrosyl-2-methylalanyl-L-leucyl-L-arginyl-L-prolylglycinamide acetate salt]
% inhibition of Pregnancy [1, 9]: 75%
% inhibition of Pregnancy ([1]; SC, total daily dose 500 μg/rat, Rx days 1-7 post coitus): 100%

CCNC(=O)[C@@H]1CCCN1C(=O)[C@H](CCCNC(=N)N)NC(=O)[C@H](CO)NC(=O)[C@@H](CO)NC(=O)[C@H](Cc1ccc(O)cc1)NC(=O)[C@H](CO)NC(=O)[C@H](Cc1c[nH]c2ccccc12)NC(=O)[C@H](Cc1c[nH]cn1)NC(=O)[C@@H]1CCC(=O)N1 ([pGlu]HWSY[dS]SRP-NHEt)
activity relative to LRH as ovulation inducing agents [3]: > 40 times

CC(C)C[C@H](NC(=O)CNC(=O)[C@H](Cc1ccc(O)cc1)NC(=O)[C@H](CO)NC(=O)[C@H](Cc1c[nH]c2ccccc12)NC(=O)[C@H](Cc1cnc[nH]1)NC(=O)[C@@H]1CCC(=O)N1)C(=O)N[C@@H](CCCNC(=N)N)C(=O)N1CCC[C@H]1C(=O)NCC(N)=O [LRH, L-(5-oxo-prolyl)-L-histidyl-L-tryptophyl-L-seryl-L-tyrosyl-glycyl-L-leucyl-L-arginyl-L-prolyl-glycinamide, reference compound]
% inhibition of Pregnancy [1, 12]: 20%
% inhibition of Pregnancy [1, 4]: 0%
% inhibition of Pregnancy [1, 5]: 60%
% inhibition of Pregnancy [1, 6]: 100%
% inhibition of Pregnancy ([1]; SC, total daily dose 50 μg/rat, Rx days 1-7 post coitus): 0%
% inhibition of Pregnancy [1, 8]: 0%
% inhibition of Pregnancy [1, 9]: 100%
% inhibition of Pregnancy ([1]; SC, total daily dose 200 μg/rat, Rx days 7-12 post coitus): 50%
% inhibition of Pregnancy [1, 13]: 20%
% inhibition of Pregnancy ([1]; SC, total daily dose 500 μg/rat, Rx days 1-3 post coitus): 40%
% inhibition of Pregnancy ([1]; SC, total daily dose 1000 μg/rat, Rx days 1-3 post coitus): 40%
% inhibition of Pregnancy ([1]; SC, total daily dose 1000 μg/rat, Rx days 1-7 post coitus): 100%
% inhibition of Pregnancy [1, 11]: 100%
post-coital anti-pregnancy (claudogenic/interceptive) effect ([1]; rat, administered post-coitally): effective in inhibiting pregnancy
teratogenicity ([1]; rat, in vivo): some signs of teratogenicity

CCNC(=O)[C@@H]1CCCN1C(=O)[C@H](CCCNC(=N)N)NC(=O)[C@H](CC(C)C)NC(=O)[C@@H](CS)NC(=O)[C@H](Cc1ccc(O)cc1)NC(=O)[C@H](CO)NC(=O)[C@H](Cc1c[nH]c2ccccc12)NC(=O)[C@H](Cc1c[nH]cn1)NC(=O)[C@@H]1CCC(=O)N1 [[D-Cys^6, des-Gly-NH2^10]LRH ethylamide]
activity relative to LRH as ovulation inducing agents [3]: > 40 times

CCNC(=O)[C@@H]1CCCN1C(=O)[C@H](CCCNC(=N)N)NC(=O)[C@H](CC(C)C)NC(=O)[C@@H](CCC(=O)O)NC(=O)[C@H](Cc1ccc(O)cc1)NC(=O)[C@H](CO)NC(=O)[C@H](Cc1c[nH]c2ccccc12)NC(=O)[C@H](Cc1c[nH]cn1)NC(=O)[C@@H]1CCC(=O)N1 [[D-Glu^6, des-Gly-NH2^10]LRH ethylamide]
activity relative to LRH as ovulation inducing agents [3]: > 40 times

CC(C)C[C@H](NC(=O)[C@@H](CCCCN)NC(=O)[C@H](Cc1ccc(O)cc1)NC(=O)[C@H](CO)NC(=O)[C@H](Cc1c[nH]c2ccccc12)NC(=O)[C@H](Cc1c[nH]cn1)NC(=O)[C@@H]1CCC(=O)N1)C(=O)N[C@@H](CCCNC(=N)N)C(=O)N1CCC[C@H]1C(=O)NCC(N)=O [[D-Lys^6]LRH, L-Pyroglutamyl-L-histidyl-L-tryptophyl-L-seryl-L-tyrosyl-D-lysyl-L-leucyl-L-arginyl-L-prolyl-glycinamide]
% inhibition of Pregnancy [1, 12]: 40%
% inhibition of Pregnancy ([1]; SC, total daily dose 5.0 μg/rat, Rx days 1-12 post coitus): 20%
% inhibition of Pregnancy [1, 8]: 0%
% inhibition of Pregnancy [1, 13]: 60%
% inhibition of Pregnancy ([1]; SC, total daily dose 300 μg/rat, Rx days 1-7 post coitus): 100%

CCNC(=O)[C@@H]1CCCN1C(=O)[C@H](CCCNC(=N)N)NC(=O)[C@H](CS)NC(=O)[C@@H](C)NC(=O)[C@H](Cc1ccc(O)cc1)NC(=O)[C@H](CO)NC(=O)[C@H](Cc1c[nH]c2ccccc12)NC(=O)[C@H](Cc1c[nH]cn1)NC(=O)[C@@H]1CCC(=O)N1 ([pGlu]HWSY[dA]CRP-NHEt)
activity relative to LRH as ovulation inducing agents [3]: > 40 times

CCNC(=O)[C@@H]1CCCN1C(=O)[C@H](CCCNC(=N)N)NC(=O)[C@H](CO)NC(=O)[C@@H](CC(C)C)NC(=O)[C@H](Cc1ccc(O)cc1)NC(=O)[C@H](CO)NC(=O)[C@H](Cc1c[nH]c2ccccc12)NC(=O)[C@H](Cc1c[nH]cn1)NC(=O)[C@@H]1CCC(=O)N1 ([pGlu]HWSY[dL]SRP-NHEt)
activity relative to LRH as ovulation inducing agents [3]: > 40 times

CCNC(=O)[C@@H]1CCCN1C(=O)[C@H](CCCNC(=N)N)NC(=O)[C@H](CC(C)C)NC(=O)[C@@H](CC(C)C)NC(=O)[C@H](Cc1ccc(O)cc1)NC(=O)[C@H](CO)NC(=O)[C@H](Cc1c[nH]c2ccccc12)NC(=O)[C@H](Cc1c[nH]cn1)NC(=O)[C@@H]1CCC(=O)N1
% inhibition of Pregnancy [1, 10]: 20%
% inhibition of Pregnancy ([1]; SC, total daily dose 200 μg/rat, Rx days 1-7 post coitus): 100%

CC(C)C[C@H](NC(=O)[C@@H](C)NC(=O)[C@H](Cc1ccc(O)cc1)NC(=O)[C@H](CO)NC(=O)[C@H](Cc1c[nH]c2ccccc12)NC(=O)[C@H](Cc1c[nH]cn1)NC(=O)[C@@H]1CCC(=O)N1)C(=O)N[C@@H](CCCNC(=N)N)C(=O)N1CCC[C@H]1C(=O)NCC(N)=O [[D-Ala^6]LRH]
% inhibition of Pregnancy [1, 8]: 17%
% inhibition of Pregnancy [1, 13]: 50%

CCNC(=O)[C@@H]1CCCN1C(=O)[C@H](CCCNC(=N)N)NC(=O)[C@H](CS)NC(=O)[C@@H](CC(C)C)NC(=O)[C@H](Cc1ccc(O)cc1)NC(=O)[C@H](CO)NC(=O)[C@H](Cc1c[nH]c2ccccc12)NC(=O)[C@H](Cc1c[nH]cn1)NC(=O)[C@@H]1CCC(=O)N1 ([pGlu]HWSY[dL]CRP-NHEt)
activity relative to LRH as ovulation inducing agents [3]: > 40 times
